Structures are written as SMILES. A value given as a limit tells only on which side of the number the result lay.

The values that follow come from patent US6043217A, “Amide derivative of amythiamicin” (Zaidan Hojin Biseibutsu Kagaku Kenyu Kai, priority 1996, dated 2000).

For series [1] the following is noted: background statement on known amythiamicins; cited from earlier work.
The test system of series [2] is Staphylococcus epidermidis ATCC 14990. In words: MIC, standard serial dilution method. The format is cell-based. The note with it: Muller-Hinton agar medium, 37° C.
In series [3] the test system is Staphylococcus aureus 209P JC-1. Nature of the series: MIC, standard serial dilution method. The format is cell-based. The note with it: Muller-Hinton agar medium, 37° C.
Series [4] concerns Staphylococcus aureus MS 15009/pMS 98. Nature of the series: MIC, standard serial dilution method. In kind it is cell-based. The note with it: Muller-Hinton agar medium, 37° C.
In series [5] the test system is Staphylococcus aureus MS 15009/pMS 99. In words: MIC, standard serial dilution method. The format is cell-based. Conditions: Muller-Hinton agar medium, 37° C.
In series [6] the test system is Escherichia coli NIHJ JC-2. Nature of the series: MIC, standard serial dilution method. The note with it: Muller-Hinton agar medium, 37° C. In kind it is cell-based.
Series [7] relates to Branhamella catarrhalis W-0500. In words: MIC, standard serial dilution method. The format is cell-based. The note with it: Muller-Hinton agar medium, 37° C.
For series [8], the system named is Staphylococcus aureus M 133. In words: MIC, standard serial dilution method. The format is cell-based. The note with it: Muller-Hinton agar medium, 37° C.
Series [9] relates to Enterobacterium faecalis W-73. Nature of the series: MIC, standard serial dilution method. The format is cell-based. The note with it: Muller-Hinton agar medium, 37° C.
Series [10] concerns Haemophilus influenzae Type b. Nature of the series: MIC, standard serial dilution method. In kind it is cell-based. Conditions: Muller-Hinton agar medium, 37° C.
Series [11] relates to Staphylococcus aureus MS 15027. Nature of the series: MIC, standard serial dilution method. In kind it is cell-based. Conditions: Muller-Hinton agar medium, 37° C.
The test system of series [12] is Branhamella catarrhalis W-0506. Nature of the series: MIC, standard serial dilution method. The format is cell-based. Conditions: Muller-Hinton agar medium, 37° C.
Series [13] relates to Streptococcus pneumoniae IP 692. Nature of the series: MIC, standard serial dilution method. In kind it is cell-based. Conditions: Muller-Hinton agar medium, 37° C.
Series [14] deals with Streptococcus pneumoniae Type 1. Nature of the series: MIC, standard serial dilution method. The format is cell-based. Conditions: Muller-Hinton agar medium, 37° C.
In series [15] the test system is Micrococcus luteus ATCC 9341. Nature of the series: MIC, standard serial dilution method. In kind it is cell-based. The note with it: Muller-Hinton agar medium, 37° C.
Series [16] deals with Streptococcus pyogenes Cook. In words: MIC, standard serial dilution method. In kind it is cell-based. The note with it: Muller-Hinton agar medium, 37° C.
For series [17], the system named is Staphylococcus aureus MS 15026. Nature of the series: MIC, standard serial dilution method. The note with it: Muller-Hinton agar medium, 37° C. In kind it is cell-based.
Series [18] relates to Haemophilus influenzae 9334. In words: MIC, standard serial dilution method. The note with it: Muller-Hinton agar medium, 37° C. In kind it is cell-based.
Series [19] concerns Klebsiella pneumonia PCI 602. Nature of the series: MIC, standard serial dilution method. The format is cell-based. The note with it: Klebsiella pneumonia PCI 602 (Table 3); Muller-Hinton agar medium, 37° C.
Series [20] deals with Staphylococcus aureus M 126. Nature of the series: MIC, standard serial dilution method. The format is cell-based. The note with it: Muller-Hinton agar medium, 37° C.

Regarding `CNC(=O)CC1NC(=O)c2csc(n2)-c2ccc(-c3nc(C(=O)OC)cs3)nc2-c2csc(n2)-c2csc(n2)C(C(C)C)NC(=O)CNC(=O)c2csc(n2)C(C(C)C)NC(=O)c2nc1sc2C` (centres unmarked) [Amythiamicin D], the solubility in water result in series [1] is reported as “hardly soluble in water”.

As for `CCCCNC(=O)c1csc(-c2ccc3c(n2)-c2csc(n2)-c2csc(n2)C(C(C)C)NC(=O)CNC(=O)c2csc(n2)C(C(C)C)NC(=O)c2nc(sc2C)C(CC(=O)NC)NC(=O)c2csc-3n2)n1` (centres unmarked) [Compound No. 8], the “Minimum growth inhibitory concentrations (MIC.)” value in series [2], in series [3], in series [4], in series [5], in [6] and in [7] was > 100 mg/L in each case. The “Minimum growth inhibitory concentrations (MIC.)” value in series [8], in [9], in series [10], in [11], in [12] and in series [13] was > 100 mg/L throughout. In addition, the “Minimum growth inhibitory concentrations (MIC.)” value in [14] is > 100 mg/L; in [15], 1.56 mg/L; in series [16] it was > 100 mg/L; in [17], > 100 mg/L; in [18], > 100 mg/L; in series [19], > 100 mg/L. Also, the “Minimum growth inhibitory concentrations (MIC.)” value in [20] is > 100 mg/L.

`CNC(=O)CC1NC(=O)c2csc(n2)-c2ccc(-c3nc(C(=O)NCCCO)cs3)nc2-c2csc(n2)-c2csc(n2)C(C(C)C)NC(=O)CNC(=O)c2csc(n2)C(C(C)C)NC(=O)c2nc1sc2C` (centres unmarked) [Compound No. 9]: the “Minimum growth inhibitory concentrations (MIC.)” value is 0.78 mg/L in series [2]; 0.39 mg/L in series [3]; 0.39 mg/L in series [4]; 0.39 mg/L in series [5]; > 100 mg/L in series [6]; > 100 mg/L in series [7]. Besides, the “Minimum growth inhibitory concentrations (MIC.)” value is 0.39 mg/L in series [8]; 0.39 mg/L in series [9]; > 100 mg/L in [10]; 0.39 mg/L in series [11]; > 100 mg/L in series [12]; > 100 mg/L in series [13]. Also, the “Minimum growth inhibitory concentrations (MIC.)” value in [14] was > 100 mg/L; in series [15], 0.20 mg/L; in series [16], > 100 mg/L; in series [17] it was 0.39 mg/L; in series [18] it was > 100 mg/L; in [19] it was > 100 mg/L. Further, the “Minimum growth inhibitory concentrations (MIC.)” value in series [20] stood at 0.39 mg/L.

As to `CNC(=O)CC1NC(=O)c2csc(n2)-c2ccc(-c3nc(C(=O)N[C@@H](CCCNC(=N)N)C(=O)O)cs3)nc2-c2csc(n2)-c2csc(n2)C(C(C)C)NC(=O)CNC(=O)c2csc(n2)C(C(C)C)NC(=O)c2nc1sc2C` (some centres unmarked) [Compound No. 10], the “Minimum growth inhibitory concentrations (MIC.)” value in [2], in series [3], in [4], in series [5], in series [6] and in [7] was > 100 mg/L throughout. Also, the “Minimum growth inhibitory concentrations (MIC.)” value in series [8], in series [9], in [10], in series [11], in [12] and in series [13] was > 100 mg/L throughout. Moreover, the “Minimum growth inhibitory concentrations (MIC.)” value in series [14], in series [15], in series [16], in [17], in series [18] and in [19] was > 100 mg/L throughout. In series [20], the “Minimum growth inhibitory concentrations (MIC.)” value was > 100 mg/L.

With `CNC(=O)CC1NC(=O)c2csc(n2)-c2ccc(-c3nc(C(=O)N[C@H](CO)CCCNC(=N)N)cs3)nc2-c2csc(n2)-c2csc(n2)C(C(C)C)NC(=O)CNC(=O)c2csc(n2)C(C(C)C)NC(=O)c2nc1sc2C` (some centres unmarked) [Compound No. 11], the “Minimum growth inhibitory concentrations (MIC.)” value in series [2] was > 100 mg/L; in [3] it was 6.25 mg/L; in series [4], > 100 mg/L; in [5], > 100 mg/L; in [6], > 100 mg/L; in [7] it was > 100 mg/L. The “Minimum growth inhibitory concentrations (MIC.)” value in series [8], in [9], in series [10], in series [11], in series [12] and in [13] was > 100 mg/L throughout. Besides, the “Minimum growth inhibitory concentrations (MIC.)” value in series [14] is > 100 mg/L; in series [15], 100 mg/L; in series [16], > 100 mg/L; in series [17], > 100 mg/L; in series [18], > 100 mg/L; in [19] it was > 100 mg/L. Further, the “Minimum growth inhibitory concentrations (MIC.)” value in [20] is > 100 mg/L.
